In patent publication US20100160267A1, “Treatment of Inflammatory Bowel Disease With 2-Methylene-19-Nor-Vitamin D Compounds” (WISCONSIN ALUMNI RESEARCH FOUNDATION, priority 2003, published 2010):
Marks after values point to notes of the source that are not given here.

Experiments:
IL-10 knock-out mice = conditions: cited from earlier work
IL-10 KO mice = assay: Colitis development in vitamin D deficient IL-10 KO mice, compound given in the diet; format: in vivo, mice (C57BL/6); conditions: 2-MP 720 ng/d; for Incidence (# with colitis/n): incidence defined as SI/BW % of greater than 6.5, vitamin D deficient for 5 weeks, then in the diet for the remainder of 9-10 weeks: 1,25(OH)2D3 5 ng/d; for Incidence (# with colitis/n) / SI/BW (small intestine weight / body weight, all mice in the group): 2-MD 0.12 ng/d; for SI/BW (small intestine weight / body weight, all mice in the group): wildtype C57BL/6 values are 5-6, in the diet: 1,25(OH)2D3 5 ng/d; for Development of colitis symptoms (in words): IL-10 KO mice, 2-MD 0.12 ng/d in the diet
Description: Recently a number of transgenic animals have been developed in which IBD symptoms occur spontaneously. One of the best animal models for Crohn's disease is the IL-10 knockout (KO) mouse (Kuhn et al. 1993, Mac Donald 1994). In conventional animal facilities, the IL-10 KO mice develop enterocolitis within 5-8 weeks of life (Kuhn et al. 1993). Approximately 30% of the IL-10 KO mice die following the development of severe anemia and weight loss (Kuhn et al. 1993). […] In addition mice raised in specific pathogen free facilities develop milder disease which doesn't result in the death of the mice (Kuhn et al. 1993). There are limitations involved in studying IL-10 KO mice as a model of IBD. If vitamin D is a regulator of IL-10 production then the results in this animal model may not represent […] what may happen in a “normal” immune response. However patients with Crohn's disease show similar symptoms, have depressed IL-10 production, and have been successfully treated with IL-10 (Narula et al. 1998).
(§1) Vitamin D deficient IL-10 KO mice were randomly distributed into one of 4 groups. Controls remained vitamin D deficient for the entire 9-10 weeks of the experiment. Mice treated with 1α,25-dihydroxyvitamin D3 (hereinafter “1,25(OH)2D3”) were vitamin D deficient for 5 weeks and then received 5 ng/d in the diet for the remainder of the experiment. 2-MP treated mice were vitamin D deficient for 5 weeks and then received 720 ng/d in the diet for the remainder of the experiment. 2-MD treated mice were vitamin D deficient for 5 weeks and then received 0.12 ng/d in the diet for the remainder of the experiment. VDR KO IL10KO mice were bred with VDR KO mice and the double IL10/VDR KO mice are compared here.

[1] = Serum calcium and body weight of treated vitamin D deficient IL-10 KO mice; format: in vivo, mice (C57BL/6); conditions: in the diet: 1,25(OH)2D3 5 ng/d, 2-MP 720 ng/d, 2-MD 0.12 ng/d
Experimental: as §1

C=C1/C(=C\C=C2/CCC[C@]3(C)[C@@H]([C@H](C)CCCC(C)(C)O)CC[C@@H]23)C[C@@H](O)C[C@@H]1O [1,25(OH)2D3, 1α,25-dihydroxyvitamin D3, reference compound]
Prevention of IBD (in words) (IL-10 knock-out mice): can prevent IBD
Incidence (# with colitis/n) (IL-10 KO mice): 1/28^c
SI/BW (small intestine weight / body weight, all mice in the group) (IL-10 KO mice): 5.8 ± 0.3^b %
BW (body weight) [1]: 20.8 ± 0.5^c g
Serum Calcium [1]: 8.9 ± 0.3^a mg %

C=C1[C@H](O)CC(=C/C=C2\CCC[C@]3(C)C([C@@H](C)CCCC(C)(C)O)CC[C@@]23C)C[C@H]1O (stereo partly drawn) [2-MD, 2-methylene-19-nor-20(S)-1α,25-dihydroxyvitamin D3]
Development of colitis symptoms (in words) (IL-10 KO mice): effective at inhibiting and/or preventing the development of colitis symptoms
Incidence (# with colitis/n) (IL-10 KO mice): 0/9^c
SI/BW (small intestine weight / body weight, all mice in the group) (IL-10 KO mice): 5.3 ± 0.1^b %
BW (body weight) [1]: 20.8 ± 1.0^c g

C=C1[C@H](O)CC(=C/C=C2\CCC[C@]3(C)C(C(C)C)CC[C@@]23C)C[C@H]1O (stereo partly drawn) [2-MP, 1α-hydroxy-2-methylene-19-nor-homopregnacalciferol]
Development of colitis symptoms (in words) (IL-10 KO mice): effective at inhibiting and/or preventing the development of colitis symptoms
Incidence (# with colitis/n) (IL-10 KO mice): 0/8^c
SI/BW (small intestine weight / body weight, all mice in the group) (IL-10 KO mice): 5.4 ± 0.3^b %
BW (body weight) [1]: 20.2 ± 0.5^c g
